From PubChem BioAssay (NCI)
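At the GI50, growth is halved. TGI marks complete inhibition of growth.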

Assays:
Test in all cases: growth of human tumour cells (NCI), 384-well format
[1] = tested on: NCI-H522 lung
[2] = tested on: M14 melanoma
[3] = tested on: SR leukemia
[4] = tested on: HT29 colon
[5] = tested on: SK-MEL-5 melanoma
[6] = tested on: NCI-H226 lung
[7] = tested on: SK-OV-3 ovarian
[8] = tested on: A498 renal
[9] = tested on: HOP-62 NSCLC
[10] = tested on: HOP-92 NSCLC
[11] = tested on: NCI-H460 NSCLC
[12] = tested on: MDA-MB-435 melanoma
[13] = tested on: MOLT-4 leukemia
[14] = tested on: SN12C renal
[15] = tested on: MDA-MB-468 breast
[16] = tested on: HCC-2998 colon
[17] = tested on: MDA-MB-231 breast
[18] = tested on: CAKI-1 renal
[19] = tested on: SF-295 CNS
[20] = tested on: NCI/ADR-RES ovarian
[21] = tested on: NCI-H322M lung
[22] = tested on: T-47D breast
[23] = tested on: HL-60(TB) leukemia
[24] = tested on: TK-10 renal
[25] = tested on: SNB-19 CNS
[26] = tested on: CCRF-CEM leukemia
[27] = tested on: HCT-15 colon
[28] = tested on: NCI-H23 lung
[29] = tested on: SF-539 CNS
[30] = tested on: SF-268 CNS
[31] = tested on: LOX IMVI melanoma
[32] = tested on: UACC-257 melanoma
[33] = tested on: SK-MEL-28 melanoma
[34] = tested on: HCT-116 colon
[35] = tested on: KM12 colon
[36] = tested on: UO-31 renal
[37] = tested on: HS 578T breast
[38] = tested on: RPMI-8226 leukemia
[39] = tested on: PC-3 prostate
[40] = tested on: OVCAR-8 ovarian
[41] = tested on: A549 NSCLC
[42] = tested on: OVCAR-4 ovarian
[43] = tested on: OVCAR-3 ovarian
[44] = tested on: BT-549 breast
[45] = tested on: DU-145 prostate
[46] = tested on: MALME-3M melanoma
[47] = tested on: SW-620 colon
[48] = tested on: SNB-75 CNS
[49] = tested on: UACC-62 melanoma
[50] = tested on: RXF 393 renal
[51] = tested on: U251 glioblastoma
[52] = tested on: K-562 leukemia
[53] = tested on: ACHN renal
[54] = tested on: MCF7 breast
[55] = tested on: EKVX NSCLC
[56] = tested on: 786-0 renal
[57] = tested on: IGROV1 ovarian
[58] = tested on: COLO 205 colon

NC1CCC(N[C@@H]2C[C@H]2c2ccccc2)CC1 (stereo partly specified)
GI50 [1]: 94.1 µM | TGI [1]: > 100 µM | GI50 [2]: 20.9 µM | TGI [2]: 40.2 µM | GI50 [3]: 6.76 µM | TGI [3]: 18.6 µM | GI50 [4]: 20 µM | TGI [4]: 43.7 µM | GI50 [5]: 41.4 µM | TGI [5]: > 100 µM | GI50 [6]: > 100 µM | TGI [6]: > 100 µM | GI50 [7]: > 100 µM | TGI [7]: > 100 µM | GI50 [8]: 28.3 µM | TGI [8]: > 100 µM | GI50 [9]: 66.9 µM | TGI [9]: > 100 µM | GI50 [10]: 35.9 µM | TGI [10]: > 100 µM | GI50 [11]: 77 µM | TGI [11]: > 100 µM | GI50 [12]: 38.1 µM | TGI [12]: > 100 µM | GI50 [13]: 24 µM | TGI [13]: 77.8 µM | GI50 [14]: > 100 µM | TGI [14]: > 100 µM | GI50 [15]: 58.9 µM | TGI [15]: > 100 µM | GI50 [16]: 40.1 µM | TGI [16]: > 100 µM | GI50 [17]: 90.5 µM | TGI [17]: > 100 µM | GI50 [18]: 35.2 µM | TGI [18]: > 100 µM | GI50 [19]: > 100 µM | TGI [19]: > 100 µM | GI50 [20]: > 100 µM | TGI [20]: > 100 µM | GI50 [21]: 86.4 µM | TGI [21]: > 100 µM | GI50 [22]: > 100 µM | TGI [22]: > 100 µM | GI50 [23]: 10.2 µM | TGI [23]: 28.9 µM | GI50 [24]: > 100 µM | TGI [24]: > 100 µM | GI50 [25]: > 100 µM | TGI [25]: > 100 µM | GI50 [26]: 31.5 µM | TGI [26]: > 100 µM | GI50 [27]: 34.1 µM | TGI [27]: > 100 µM | GI50 [28]: 71.2 µM | TGI [28]: > 100 µM | GI50 [29]: 23.4 µM | TGI [29]: 64.1 µM | GI50 [30]: 76.2 µM | TGI [30]: > 100 µM | GI50 [31]: 36.2 µM | TGI [31]: > 100 µM | GI50 [32]: 17.5 µM | TGI [32]: 33.1 µM | GI50 [33]: 32.2 µM | TGI [33]: > 100 µM | GI50 [34]: 41.6 µM | TGI [34]: > 100 µM | GI50 [35]: 61.9 µM | TGI [35]: > 100 µM | GI50 [36]: 32.5 µM | TGI [36]: > 100 µM | GI50 [37]: 37.5 µM | TGI [37]: > 100 µM | GI50 [38]: 41.5 µM | TGI [38]: > 100 µM | GI50 [39]: 64.7 µM | TGI [39]: > 100 µM | GI50 [40]: 49.4 µM | TGI [40]: > 100 µM | GI50 [41]: > 100 µM | TGI [41]: > 100 µM | GI50 [42]: > 100 µM | TGI [42]: > 100 µM | GI50 [43]: 25 µM | TGI [43]: > 100 µM | GI50 [44]: 46.2 µM | TGI [44]: > 100 µM | GI50 [45]: 87.1 µM | TGI [45]: > 100 µM | GI50 [46]: 21 µM | TGI [46]: 47.3 µM | GI50 [47]: > 100 µM | TGI [47]: > 100 µM | GI50 [48]: > 100 µM | TGI [48]: > 100 µM | GI50 [49]: 19.4 µM | TGI [49]: 38.2 µM | GI50 [50]: 32.1 µM | TGI [50]: > 100 µM | GI50 [51]: 44.4 µM | TGI [51]: > 100 µM | GI50 [52]: 31.4 µM | TGI [52]: > 100 µM | GI50 [53]: > 100 µM | TGI [53]: > 100 µM | GI50 [54]: > 100 µM | TGI [54]: > 100 µM | GI50 [55]: 40.2 µM | TGI [55]: > 100 µM | GI50 [56]: 33.4 µM | TGI [56]: > 100 µM | GI50 [57]: 48.8 µM | TGI [57]: > 100 µM | GI50 [58]: 66.7 µM | TGI [58]: > 100 µM
